Patent publication US10667517B2, “2-(Het)aryl-substituted fused heterocycle derivatives as pesticides” (BAYER CROPSCIENCE AKTIENGESELLSCHSAFT, priority 2015, dated 2020)

What was measured:
Lucilia cuprina = Lucilia cuprina test; type: in vivo; conditions: application rate 100 ppm; L1 larvae in minced horsemeat; after 2 days
Procedure: Lucilia cuprina Test • Solvent: dimethyl sulphoxide To produce a suitable active compound preparation, 10 mg of active compound are mixed with 0.5 ml of dimethyl sulphoxide, and the concentrate is diluted with water to the desired concentration. About 20 L1 larvae of the Australian sheep blowfly (Lucilia cuprina) are transferred into a test vessel containing minced horsemeat and the active compound preparation of the desired concentration. After 2 days, the kill in % is determined. 100% means that all the larvae have been killed; 0% means that no larvae have been killed.

Ctenocephalides felis [1] = experiment: Ctenocephalides felis - oral test; type: in vivo; conditions: application rate 100 ppm in citrated cattle blood; adult cat fleas; after 2 days
Procedure: Ctenocephalides felis—Oral Test • Solvent: dimethyl sulphoxide To produce a suitable active compound preparation, 10 mg of active compound are mixed with 0.5 ml of dimethyl sulphoxide. Dilution with citrated cattle blood gives the desired concentration. About 20 unfed adult cat fleas (Ctenocephalides felis) are placed into a chamber which is closed at the top and bottom with gauze. A metal cylinder whose bottom end is closed with parafilm is placed onto the chamber. The cylinder contains the blood/active compound preparation, which can be imbibed by the fleas through the parafilm membrane. After 2 days, the kill in % is determined. 100% means that all of the fleas have been killed; 0% means that none of the fleas have been killed.

[2] = log P (neutral), HPLC on reversed-phase column (C 18), LC-MS neutral range; type: physicochemical; conditions: pH 7.8, ammonium hydrogencarbonate/acetonitrile; for chromatographic logP: reversed-phase HPLC column (C 18), pH 7.8, HPLC reversed-phase C 18, 55° C.; for log P (neutral): HPLC reversed-phase C 18, 55° C.
Procedure: Temperature: 55° C. […] Called log P (neutral) in the table.

Musca domestica = Musca domestica test; type: in vivo; conditions: application rate 100 ppm; adult houseflies, sponge with sugar solution; after 2 days
Procedure: Musca domestica Test • Solvent: dimethyl sulphoxide To produce a suitable active compound preparation, 10 mg of active compound are mixed with 0.5 ml of dimethyl sulphoxide, and the concentrate is diluted with water to the desired concentration. Vessels containing a sponge treated with sugar solution and the active compound preparation of the desired concentration are populated with 10 adult houseflies (Musca domestica). After 2 days, the kill in % is determined. 100% means that all of the flies have been killed; 0% means that none of the flies have been killed.

Phaedon cochleariae = Phaedon cochleariae - spray test; type: in vivo; conditions: mustard beetle larvae on Chinese cabbage leaf discs, after 7 days; for pest or weed control at 500 g/ha / efficacy: application rate 500 g/ha
Procedure: Phaedon cochleariae—Spray Test
(§1) • Solvent: 78.0 parts by weight of acetone • 1.5 parts by weight of dimethylformamide • Emulsifier: alkylaryl polyglycol ether
(§2) To produce a suitable active compound preparation, 1 part by weight of active compound is dissolved with the stated parts by weight of solvent and made up with water containing an emulsifier concentration of 1000 ppm until the desired concentration is attained. To produce further test concentrations, the preparation is diluted with emulsifier-containing water.
After 7 days, the efficacy in % is determined. 100% means that all the beetle larvae have been killed; 0% means that no beetle larvae have been killed.

Ctenocephalides felis [3] = experiment: Ctenocephalides felis - in vitro contact tests with adult cat fleas; type: in vivo; conditions: application rate 5 μg/cm^2 (500 g/ha); adult cat fleas in coated tubes; after 48 h; dead or moribund
Procedure: Ctenocephalides felis—In Vitro Contact Tests with Adult Cat Fleas
(§3) For the coating of the test tubes, 9 mg of active compound are first dissolved in 1 ml of acetone p.a. and then diluted to the desired concentration with acetone p.a. 250 μl of the solution are distributed homogeneously on the inner walls and the base of a 25 ml test tube by turning and rocking on an orbital shaker (rocking rotation at 30 rpm for 2 h). With 900 ppm active compound solution and internal surface 44.7 cm^2, given homogeneous distribution, an area-based dose of 5 μg/cm^2 is achieved.
After the solvent has evaporated off, the tubes are populated with 5-10 adult cat fleas (Ctenocephalides felis), sealed with a perforated plastic lid and incubated in a horizontal position at room temperature and ambient humidity. After 48 h, efficacy is determined. To this end, the test tubes are stood upright and the fleas are knocked to the base of the tube. Fleas which remain motionless at the base or move in an uncoordinated manner are considered to be dead or moribund.
100% efficacy means that all the fleas were dead or moribund. 0% efficacy means that no fleas were harmed.

Myzus persicae = Myzus persicae - spray test; type: in vivo; conditions: application rate 500 g/ha; all stages of green peach aphid on Chinese cabbage leaf discs; after 5-6 days
Procedure: Myzus persicae—Spray Test
• Solvent: 78 parts by weight of acetone • 1.5 parts by weight of dimethylformamide • Emulsifier: alkylaryl polyglycol ether
as §2
Discs of Chinese cabbage leaves (Brassica pekinensis) infested by all stages of the green peach aphid (Myzus persicae) are sprayed with an active compound preparation of the desired concentration.
After 5-6 days, the efficacy in % is determined. 100% means that all the aphids have been killed; 0% means that no aphids have been killed.

Spodoptera frugiperda = Spodoptera frugiperda - spray test; type: in vivo; conditions: application rate 500 g/ha; armyworm caterpillars on maize leaf discs; after 7 days
Procedure: Spodoptera frugiperda—Spray Test
as §1, §2
Leaf discs of maize (Zea mays) are sprayed with an active compound preparation of the desired concentration and, after drying, populated with caterpillars of the armyworm (Spodoptera frugiperda).
After 7 days, the efficacy in % is determined. 100% means that all the caterpillars have been killed; 0% means that no caterpillars have been killed.

Meloidogyne incognita = Meloidogyne incognita test; type: in vivo; conditions: application rate 20 ppm; egg/larvae suspension with lettuce seeds in sand; formation of galls after 14 days
Procedure: Meloidogyne incognita Test • Solvent: 125.0 parts by weight of acetone To produce a suitable preparation of active compound, 1 part by weight of active compound is mixed with the stated amount of solvent and the concentrate is diluted with water to the desired concentration. Vessels are filled with sand, active compound solution, an egg/larvae suspension of the southern root-knot nematode (Meloidogyne incognita) and lettuce seeds. The lettuce seeds germinate and the plants develop. The galls develop on the roots. After 14 days, the nematicidal efficacy in % is determined by the formation of galls. 100% means that no galls were found; 0% means that the number of galls on the treated plants corresponds to the untreated control.

Tetranychus urticae = Tetranychus urticae - spray test, OP-resistant; type: in vivo; conditions: application rate 500 g/ha; all stages of greenhouse red spider mite on bean leaf discs; after 6 days
Procedure: Tetranychus urticae—Spray Test, OP-Resistant
as §1, §2
Discs of bean leaves (Phaseolus vulgaris) infested with all stages of the greenhouse red spider mite (Tetranychus urticae) are sprayed with an active compound preparation of the desired concentration.
After 6 days, the efficacy in % is determined. 100% means that all the spider mites have been killed; 0% means that no spider mites have been killed.

Rhipicephalus sanguineus = Rhipicephalus sanguineus - in vitro contact tests with adult brown dog ticks; type: in vivo; conditions: application rate 5 μg/cm^2 (500 g/ha); adult brown dog ticks in coated tubes; after 48 h; dead or moribund
Procedure: Rhipicephalus sanguineus—In Vitro Contact Tests with Adult Brown Dog Ticks
as §3
After the solvent has evaporated off, the tubes are populated with 5-10 adult dog ticks (Rhipicephalus sanguineus), sealed with a perforated plastic lid and incubated in a horizontal position in the dark at room temperature and ambient humidity. After 48 h, efficacy is determined. To this end, the ticks are knocked to the base of the tube and incubated on a hotplate at 45-50° C. for not more than 5 min. Ticks which remain motionless on the base or move in such an uncoordinated manner that they are unable to deliberately avoid the heat by climbing upwards are considered to be dead or moribund.
An efficacy of 100% means that all the ticks were dead or moribund. 0% efficacy means that none of the ticks were harmed.

Boophilus microplus = Boophilus microplus - injection test; type: in vivo; conditions: application rate 20 μg/animal; injected into engorged adult female cattle ticks; laying of fertile eggs after 7 days
Procedure: Boophilus microplus—Injection Test
• Solvent: dimethyl sulphoxide
To produce a suitable active compound preparation, 10 mg of active compound are mixed with 0.5 ml of solvent and the concentrate is diluted with solvent to the desired concentration. 1 μl of the active compound solution is injected into the abdomen of 5 engorged adult female cattle ticks (Boophilus microplus). The animals are transferred into dishes and kept in a climate-controlled room.
Efficacy is assessed after 7 days by laying of fertile eggs. Eggs which are not visibly fertile are stored in a climate-controlled cabinet until the larvae hatch after about 42 days. An efficacy of 100% means that none of the ticks has laid any fertile eggs; 0% means that all the eggs are fertile.

[4] = log P (acidic), HPLC on reversed-phase column (C 18), LC-MS acidic range; type: physicochemical; conditions: reversed-phase HPLC column (C 18); HPLC reversed-phase C 18, 55° C., pH 2.7, 0.1% formic acid/acetonitrile
Source text: Called log P (HCOOH) in the table.

[5] = Phaedon cochleariae, foliar, 168 h, read-out: efficacy

SMILES | chromatographic logP [2] | efficacy (kill) (Lucilia cuprina) [%] | efficacy (Myzus persicae) [%] | efficacy (Spodoptera frugiperda) [%] | efficacy (Phaedon cochleariae) [%] | further results
CCS(=O)(=O)c1ccc(NC(=O)C(F)(F)F)nc1-c1nc2cc(C(F)(F)F)ccc2n1C [Example I-11] | – | 100 | 90 | – | 100 | efficacy (Rhipicephalus sanguineus): 80%; efficacy (kill) (Ctenocephalides felis [1]): 100%; log P (neutral) [2]: 3.27; efficacy (Ctenocephalides felis [3]): 100%
CCS(=O)(=O)c1ccc(-n2ccc(C(F)(F)F)n2)nc1-c1nc2cc(C(F)(F)F)cnc2n1C [Example I-13] | – | 100 | – | 100 | 100 | efficacy (kill) (Musca domestica): 80%
CCS(=O)(=O)c1ccc(NC(=O)C(F)(F)F)nc1-c1nc2cc(C(F)(F)F)cnc2n1C [Example I-15] | – | – | 100 | 83 | 100 | log P (neutral) [2]: 2.00; nematicidal efficacy (Meloidogyne incognita): 90%
CCS(=O)(=O)c1ccc(NC(=O)C(C)CS(C)(=O)=O)nc1-c1nc2cc(C(F)(F)F)cnc2n1C (stereo not drawn) [Example I-21] | – | – | 90 | – | 100 | log P (neutral) [2]: 2.31; nematicidal efficacy (Meloidogyne incognita): 90%
CCS(=O)(=O)c1ccc(-n2cncn2)nc1-c1nc2cc(C(F)(F)F)cnc2n1C [Example I-22] | – | 100 | 100 | 100 | 100 | efficacy (Boophilus microplus): 80%; efficacy (kill) (Ctenocephalides felis [1]): 100%; efficacy (Ctenocephalides felis [3]): 100%
CCS(=O)(=O)c1ccc(C(=O)NC)nc1-c1cn2cnc(C(F)(F)F)cc2n1 [Example I-38, 5-(Ethylsulphonyl)-N-methyl-6-[7-(trifluoromethyl)imidazo[1,2-c]pyrimidin-2-yl]pyridine-2-carboxamide] | – | – | – | – | – | chromatographic logP [4]: 1.95
Fc1ccc(F)c(-c2cn3cc(C(F)(F)F)ncc3n2)n1 [IX-6, 2-(3,6-Difluoropyridin-2-yl)-6-(trifluoromethyl)imidazo[1,2-a]pyrazine] | – | – | – | – | – | chromatographic logP [4]: 2.05

Continued, in another order:

chromatographic logP [2] | SMILES | efficacy (kill) (Lucilia cuprina) [%] | efficacy (Myzus persicae) [%] | efficacy (Spodoptera frugiperda) [%] | efficacy (Phaedon cochleariae) [%] | further results
2.5 | CCS(=O)(=O)c1ccc(NC(C)=O)nc1-c1nc2cc(C(F)(F)F)ccc2n1C [Example I-2, N-{5-(Ethylsulphonyl)-6-[1-methyl-5-(trifluoromethyl)-1H-benzimidazol-2-yl]pyridin-2-yl}acetamide] | 100 | 100 | 100 | – | efficacy (kill) (Ctenocephalides felis [1]): 95%; efficacy (kill) (Musca domestica): 90%; pest or weed control at 500 g/ha (Phaedon cochleariae; [5]): 100%; efficacy (Ctenocephalides felis [3]): 100%
4.04 | CCS(=O)(=O)c1ccc(-n2cc(C(F)(F)F)cn2)nc1-c1nc2cc(C(F)(F)F)cnc2n1C [Example I-4, 2-{3-(Ethylsulphonyl)-6-[4-(trifluoromethyl)-1H-pyrazol-1-yl]pyridin-2-yl}-3-methyl-6-(trifluoromethyl)-3H-imidazo[4,5-b]pyridine] | 100 | – | 100 | – | efficacy (kill) (Musca domestica): 80%; pest or weed control at 100 g/ha (Phaedon cochleariae; Phaedon cochleariae, foliar, 168 h, application rate 100 g/ha, read-out: efficacy): 83%
2.02 | CCS(=O)(=O)c1ccc(N)nc1-c1nc2cc(C(F)(F)F)cnc2n1C [Example I-6, 5-(Ethylsulphonyl)-6-[3-methyl-6-(trifluoromethyl)-3H-imidazo[4,5-b]pyridin-2-yl]pyridin-2-amine] | – | 90 | – | – | pest or weed control at 500 g/ha (Phaedon cochleariae; [5]): 100%; nematicidal efficacy (Meloidogyne incognita): 90%
2.1 | CCS(=O)(=O)c1ccc(N)nc1-c1nc2cc3c(cc2n1C)OC(F)(F)O3 [Example I-8, 6-(2,2-Difluoro-7-methyl-[1,3]dioxolo[4,5-f]benzimidazol-6-yl)-5-ethylsulphonylpyridin-2-amine] | – | 90 | 100 | – | efficacy (Tetranychus urticae): 90%; pest or weed control at 500 g/ha (Phaedon cochleariae; [5]): 100%
